# Experimental data from patent US9062056B2, “Aza-benzimidazolone Chymase inhibitors” (Boehringer Ingelheim International GmbH, priority 2008, dated 2015).
# Target: T1, Chymase (Homo sapiens, UniProt P23946)
# T1 sequence (P23946 22-247): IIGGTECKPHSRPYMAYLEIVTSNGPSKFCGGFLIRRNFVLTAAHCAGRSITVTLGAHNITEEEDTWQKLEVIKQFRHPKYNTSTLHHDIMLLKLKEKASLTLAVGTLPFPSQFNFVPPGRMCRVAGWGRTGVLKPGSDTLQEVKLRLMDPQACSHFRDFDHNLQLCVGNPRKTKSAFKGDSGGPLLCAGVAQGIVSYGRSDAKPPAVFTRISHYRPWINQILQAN
# Test: In vitro assay for inhibition of Chymase (rhodamine 110 peptide substrate, fluorescence)
# Type: biochemical
# Settings: 500 pM chymase, 100 nM substrate, 100 μM TCEP, 1% DMSO, 28° C., 1 hour
# Description: IN VITRO ASSAY FOR INHIBITION OF CHYMASE
# Chymase assays were performed in a total volume of 15 μL in Corning black opaque 384-well microtiter plates with a non-binding surface (Corning, N.Y.). The assay buffer was comprised of 20 mM Tris HCl pH 8.0, 50 mM NaCl, 0.01% CHAPS. The test compounds were serially diluted 3-fold with neat DMSO in a 96-well polypropylene plate from a 10 mM DMSO stock to give the 10 point dose response curve. 3 μL of the resulting DMSO solution were transferred to a 384-well polypropylene plate in duplicate, and 37 μL of assay buffer was added. Chymase was added to the assay plate in 3 uL of assay buffer followed by 2 uL of the appropriate compound dilution using a PlateMate Plus (Matrix Technologies Corp., Hudson, N.H.). The reaction was initiated by the addition of 10 uL rhodamine 110, bis-(succinoyl-L-alanyl-L-alanyl-L-prolyl-L-phenylalanylamide) (American Peptides, Sunnyvale, Calif.) in assay buffer containing 150 μM tris(2-carboxyethyl)phosphine (TCEP, Pierce Chemical, Rockford, Ill.) using a Multidrop (Thermo Electron Corp., Waltham, Mass.). Final assay concentrations were 500 pM chymase, 100 nM substrate, 100 μM TCEP, and 1% DMSO. The plates were incubated at 28° C. and 80% humidity for 1 hour, at which time the fluorescence was read on a Viewlux 1430 Microplate Imager (Perkin Elmer Life Sciences, Boston, Mass.) with 485 nm excitation, 530 nm emission, and a fluorescein dichroic mirror. The percentage of control values were calculated relative to assay blanks containing complete reaction minus chymase and a 100% control containing assay buffer with 1% DMSO in place of compound. IC50 values were obtained by fitting the data using XLFit4 (IDBS Software).
row,Structure (SMILES),IC50 [nM]
1,"Cc1cccc2c1c(Cn1c(=O)n([C@H](CC(=O)O)c3ccc(F)cc3)c3nc(C#N)ccc31)cn2C [(R)-3-[5-Cyano-1-(1,4-dimethyl-1H-indol-3-ylmethyl)-2-oxo-1,2-dihydro-imidazo[4,5-b]pyridin-3-yl]-3-(4-fluoro-phenyl)-propionic acid]",0.245
2,"Cc1cccc2c1c(Cn1c(=O)n([C@H](CC(=O)O)c3ccccc3)c3nc(C#N)ccc31)cn2C [(R)-3-[5-Cyano-1-(1,4-dimethyl-1H-indol-3-ylmethyl)-2-oxo-1,2-dihydro-imidazo[4,5-b]pyridin-3-yl]-3-phenyl-propionic acid]",1.5
3,"Cc1cc(C)c2c(Cn3c(=O)n([C@H](CC(=O)O)c4ccc(F)cc4)c4nc(C#N)ccc43)cn(C)c2c1 [(R)-3-[5-Cyano-2-oxo-1-(1,4,6-trimethyl-1H-indol-3-ylmethyl)-1,2-dihydro-imidazo[4,5-b]pyridin-3-yl]-3-(4-fluoro-phenyl)-propionic acid]",0.23
4,"Cc1cc(C)c2c(Cn3c(=O)n([C@H](CC(=O)O)c4ccccc4)c4nc(C#N)ccc43)cn(C)c2c1 [(R)-3-[5-Cyano-2-oxo-1-(1,4,6-trimethyl-1H-indol-3-ylmethyl)-1,2-dihydro-imidazo[4,5-b]pyridin-3-yl]-3-phenyl-propionic acid]",0.6
5,"COc1ccc2c(n1)n([C@H](CC(=O)O)c1ccccc1)c(=O)n2Cc1cn(C)c2cc(C)cc(C)c12 [(R)-3-[5-Methoxy-2-oxo-1-(1,4,6-trimethyl-1H-indol-3-ylmethyl)-1,2-dihydro-imidazo[4,5-b]pyridin-3-yl]-3-phenyl-propionic acid]",0.605
6,"Cc1cccc2c1c(Cn1c(=O)n([C@H](CC(=O)O)c3ccccc3)c3nc(C(C)C)ncc31)cn2C [(R)-3-[7-(1,4-Dimethyl-1H-indol-3-ylmethyl)-2-isopropyl-8-oxo-7,8-dihydro-purin-9-yl]-3-phenyl-propionic acid]",12.6
7,"CCC[C@@H](CC(=O)O)n1c(=O)n(Cc2cn(C)c3cccc(C)c23)c2cccnc21 [(S)-3-[1-(1,4-Dimethyl-1H-indol-3-ylmethyl)-2-oxo-1,2-dihydro-imidazo[4,5-b]pyridin-3-yl]-hexanoic acid]",4.93
8,"CCC[C@@H](CC(=O)O)n1c(=O)n(Cc2cn(C)c3cccc(C)c23)c2ccc(C)nc21 [(S)-3-[1-(1,4-Dimethyl-1H-indol-3-ylmethyl)-5-methyl-2-oxo-1,2-dihydro-imidazo[4,5-b]pyridin-3-yl]-hexanoic acid]",4.48
9,"CCC[C@@H](CC(=O)O)n1c(=O)n(Cc2cn(C)c3cccc(C)c23)c2cc(C)cnc21 [(S)-3-[1-(1,4-Dimethyl-1H-indol-3-ylmethyl)-6-methyl-2-oxo-1,2-dihydro-imidazo[4,5-b]pyridin-3-yl]-hexanoic acid]",3.46

# More lines, now with the values ahead:
row,IC50 [nM],Structure (SMILES)
1,3.4,"CCC[C@@H](CC(=O)O)n1c(=O)n(Cc2nsc3cc(C)cc(C)c23)c2ccc(C)nc21 [(S)-3-[1-(4,6-Dimethyl-1,2-benzisothiazol-3-ylmethyl)-5-methyl-2-oxo-1,2-dihydro-imidazo[4,5-b]pyridin-3-yl]-hexanoic acid]"
2,8.86,"CCC[C@@H](CC(=O)O)n1c(=O)n(Cc2cn(C)c3cccc(C)c23)c2ncccc21 [(S)-3-[3-(1,4-Dimethyl-1H-indol-3-ylmethyl)-2-oxo-2,3-dihydro-imidazo[4,5-b]pyridin-1-yl]-hexanoic acid]"
3,18.9,"CCC[C@@H](CC(=O)O)n1c(=O)n(Cc2cn(C)c3cccc(C)c23)c2cnccc21 [(S)-3-[3-(1,4-Dimethyl-1H-indol-3-ylmethyl)-2-oxo-2,3-dihydro-imidazo[4,5-c]pyridin-1-yl]-hexanoic acid]"
4,0.81,"CCC[C@@H](CC(=O)O)n1c(=O)n(Cc2cn(C)c3cc(C)cc(C)c23)c2ccc(C)nc21 [(S)-3-[5-Methyl-2-oxo-1-(1,4,6-trimethyl-1H-indol-3-ylmethyl)-1,2-dihydro-imidazo[4,5-b]pyridin-3-yl]-hexanoic acid]"
5,7.48,"CCC[C@@H](CC(=O)NS(=O)(=O)CC)n1c(=O)n(Cc2cn(C)c3cccc(C)c23)c2cccnc21 [Ethanesulfonic acid {(S)-3-[1-(1,4-dimethyl-1H-indol-3-ylmethyl)-2-oxo-1,2-dihydro-imidazo[4,5-b]pyridin-3-yl]-hexanoyl}-amide]"
6,11.8,"CCC[C@@H](CC(=O)NS(C)(=O)=O)n1c(=O)n(Cc2cn(C)c3cccc(C)c23)c2cccnc21 [N-{(S)-3-[1-(1,4-Dimethyl-1H-indol-3-ylmethyl)-2-oxo-1,2-dihydro-imidazo[4,5-b]pyridin-3-yl]-hexanoyl}-methanesulfonamide]"
